Assay: xn = mol fraction of the nth substance listed
Settings: Liquid, pressure decay method, x2 = 0

Q: With `CCCCCC[n+]1ccn(C)c1.O=S(=O)([N-]S(=O)(=O)C(F)(F)F)C(F)(F)F` + O=C=O as the compound, how does the binary diffusion coefficient (283.2 K, 91.5 kPa) read?
A: The binary diffusion coefficient was 2.64e-10 m2/s.

Q: What about the binary diffusion coefficient (298.2 K, 99.7 kPa) of the same compound?
A: Its binary diffusion coefficient is 3.89e-10 m2/s.

Q: What about the binary diffusion coefficient (313.2 K, 103.4 kPa) of the same compound?
A: The binary diffusion coefficient was 5.97e-10 m2/s.
